Data as given in the supplement of paper PMC10307832.

Tests used:
Test in all cases: relative viability (nuclei count vs DMSO), 5 days (fraction); higher = more cells survive
[1] = compound: C1COCCN1C2=NC(=NC3=C2OC4=C3C=CC=N4)C5=CC(=CC=C5)NC(=O)C6=CN=C(C=C6)N + CC(C)C[C@H](NC(=O)[C@H](Cc1ccccc1)NC(=O)c1cnccn1)B(O)O [Bortezomib] (partner 0.002 µM)
Outline: (§1)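 A single step with final 0.05% Triton X-100, 1% formaldehyde and 1 ug/ml Hoechst fixed the cells and stained nuclei 5 days after treatment. Lung cancer cell lines in 1536-well plates had been treated by pin tool the day after seeding with one drug alone or a fixed anchor-drug dose plus five library-drug doses (not always all listed) in √10 steps, and nuclei were counted on 4× images. Relative viability is the ratio of nuclei in treated wells to nuclei in vehicle wells, taken as the median of duplicate plates.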

SGI-1776 + Decitabine = compound: CN1CCC(CNc2ccc3ncc(-c4cccc(OC(F)(F)F)c4)n3n2)CC1 [SGI-1776] + Nc1ncn([C@H]2C[C@H](O)[C@@H](CO)O2)c(=O)n1 [Decitabine] (partner 2 µM)
Outline: as §1

Entinostat + Luminespib = compound: Nc1ccccc1NC(=O)c1ccc(CNC(=O)OCc2cccnc2)cc1 [Entinostat] + CCNC(=O)c1noc(-c2cc(C(C)C)c(O)cc2O)c1-c1ccc(CN2CCOCC2)cc1 [Luminespib] (partner 0.01 µM)
Outline: as §1

[2] = compound: C1COCCN1C2=NC(=NC3=C2OC4=C3C=CC=N4)C5=CC(=CC=C5)NC(=O)C6=CN=C(C=C6)N + C[C@@H](Oc1cc(-c2cnn(C3CCNCC3)c2)cnc1N)c1c(Cl)ccc(F)c1Cl [Crizotinib] (partner 1 µM)
Outline: as §1

| Cell Line | relative viability ([1]; first compound 0.02 µM) | relative viability ([1]; first compound 0.06325 µM) | relative viability ([1]; first compound 0.2 µM) | relative viability ([1]; first compound 0.6325 µM) | relative viability ([1]; first compound 2 µM) | relative viability (SGI-1776 + Decitabine; first compound 0.08 µM) | relative viability (SGI-1776 + Decitabine; first compound 0.8 µM) | relative viability (SGI-1776 + Decitabine; first compound 2.53 µM) | relative viability (SGI-1776 + Decitabine; first compound 8 µM) | relative viability (Entinostat + Luminespib; first compound 0.02 µM) | relative viability (Entinostat + Luminespib; first compound 0.06325 µM) | relative viability (Entinostat + Luminespib; first compound 0.2 µM) | relative viability (Entinostat + Luminespib; first compound 0.6325 µM) | relative viability (Entinostat + Luminespib; first compound 2 µM) | relative viability ([2]; first compound 0.02 µM) | relative viability ([2]; first compound 0.06325 µM) | relative viability ([2]; first compound 0.2 µM) | relative viability ([2]; first compound 0.6325 µM) | relative viability ([2]; first compound 2 µM) |
| --- | --- | --- | --- | --- | --- | --- | --- | --- | --- | --- | --- | --- | --- | --- | --- | --- | --- | --- | --- |
| NCI-H460 | 1.45 | 1.13 | 1.27 | 1.02 | 0.125 | 0.476 | 0.61 | 0.49 | 0.494 | 0.0255 | 0.0353 | 0.0291 | 0.0258 | 0.0328 | 1.16 | 1.03 | 0.913 | 0.927 | 0.144 |
| LCLC-97TM1 | 0.704 | 0.635 | 0.499 | 0.802 | 0.233 | 0.234 | 0.206 | 0.26 | 0.236 | 0.939 | 0.798 | 0.695 | 0.808 | 0.491 | – | 0.407 | 0.321 | 0.341 | 0.308 |
| NCI-H1975 | 0.352 | 0.419 | 0.397 | 0.359 | 0.299 | 0.43 | 0.391 | 0.431 | 0.377 | 0.238 | 0.209 | 0.217 | 0.199 | 0.13 | 0.993 | 1.15 | 0.929 | 1.07 | 0.418 |
